{
  "source": "BindingDB's records for patent US20240002388",
  "about": "(Hutchison Medipharma, 2024)",
  "target": "T1, Receptor-interacting serine/threonine-protein kinase 1 (Homo sapiens, UniProt Q13546)",
  "T1 sequence (Q13546 whole entry)": "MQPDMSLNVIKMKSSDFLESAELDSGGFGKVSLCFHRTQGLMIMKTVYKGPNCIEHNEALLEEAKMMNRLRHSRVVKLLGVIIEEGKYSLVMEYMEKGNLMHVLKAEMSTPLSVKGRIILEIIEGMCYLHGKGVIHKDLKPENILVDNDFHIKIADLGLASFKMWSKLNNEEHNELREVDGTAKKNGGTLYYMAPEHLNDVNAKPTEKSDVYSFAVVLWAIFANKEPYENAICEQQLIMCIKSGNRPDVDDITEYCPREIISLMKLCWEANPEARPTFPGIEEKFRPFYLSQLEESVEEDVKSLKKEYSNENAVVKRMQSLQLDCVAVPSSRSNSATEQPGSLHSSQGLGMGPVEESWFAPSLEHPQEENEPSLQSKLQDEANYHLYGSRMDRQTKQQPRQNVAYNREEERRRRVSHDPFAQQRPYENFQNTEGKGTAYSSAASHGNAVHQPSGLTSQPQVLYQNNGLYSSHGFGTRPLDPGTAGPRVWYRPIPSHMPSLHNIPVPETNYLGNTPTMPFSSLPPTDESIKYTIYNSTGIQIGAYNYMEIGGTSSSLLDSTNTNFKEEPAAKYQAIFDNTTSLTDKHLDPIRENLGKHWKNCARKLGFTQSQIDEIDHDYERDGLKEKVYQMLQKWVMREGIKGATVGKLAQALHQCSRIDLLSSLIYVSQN",
  "assay": "RIPK1 Kinase Activity Assay",
  "description": "ADP-Glo Kinase kit can be used to measure ADP level in kinase activity assay so as to distinguish the inhibitory effects of different compounds on RIPK1 kinase activity. The ADP-Glo assay was usually divided into three steps. Firstly, the kinase converted ATP to ADP and phosphorylated the substrate at the same time; secondly, ATP digestion reagent was added to degrade all ATP in the reaction system; finally, a detection reagent was added to reduce ADP to ATP, and energy from ATP was transferred to […] which thus emitting a chemical luminescence that can be detected. Assay procedure can refer to manufacture's technical manual.(2) Reagent Preparation:1.33× kinase buffer: 5× kinase buffer stock (250 mM of NaCl, 150 mM of MgCl2, 2.5 mg/ml BSA (bovine serum albumin), 0.1% CHAPS (3-[(3-cholamidopropyl)-dimethyl-ammonio]-1-propane sulfonate), and 5 mM of dithiothreitol) was diluted with water to 1.33× kinase buffer;RIPK1 enzyme solution: the kinase was dissolved in 1.33× kinase buffer to make 40 nM as the final working concentration;ATP solution: 10 mM ATP stock solution in water was dissolved in 1.33× kinase buffer to make 10 μM as the final working concentration;4× compound preparation: the compound was diluted in a 3-fold gradient, and finally 4% DMSO aqueous solution containing different concentrations of the compound was obtained. […]",
  "data": [
    {"smiles": "CC(C)n1cncc(-c2ccc(C3(NC(=O)c4nnc(Cc5ccccc5)[nH]4)CC3)cc2)c1=O", "note": "[US20240002388, Compound 14]", "values": [
      {"measurement": "IC50", "result": 18, "unit": "nM"}
    ]}
  ]
}
